# According to paper PMC11383987 (bioRxiv, 2024):
# Target: T1, Arabidopsis thaliana PIN8 (Arabidopsis thaliana, UniProt Q9LFP6)
# T1 sequence (Q9LFP6 1-367): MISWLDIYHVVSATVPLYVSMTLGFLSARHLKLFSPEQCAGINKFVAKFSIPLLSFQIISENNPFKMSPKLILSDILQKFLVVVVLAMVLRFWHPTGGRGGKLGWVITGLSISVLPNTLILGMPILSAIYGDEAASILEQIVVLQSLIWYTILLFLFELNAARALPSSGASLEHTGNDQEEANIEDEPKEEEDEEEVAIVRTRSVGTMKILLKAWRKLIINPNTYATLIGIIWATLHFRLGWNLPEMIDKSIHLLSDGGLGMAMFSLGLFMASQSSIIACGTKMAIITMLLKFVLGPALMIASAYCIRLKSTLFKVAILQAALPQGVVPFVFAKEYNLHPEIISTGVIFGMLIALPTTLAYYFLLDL
# Assay: SSM electrophysiology peak current response, wild-type PIN8 proteoliposomes
# Format: biochemical
smiles,measurement,setting,value
"O=C(O)c1ccccc1C(=O)Nc1cccc2ccccc12 [NPA, 1-N-naphthylphthalamic acid]","effect of NPA on current response to 2,4-D","100 μM 2,4D in absence or presence of 20 µM NPA",inhibited
same,peak width of SSM current response at various lipid-to-protein ratios (LPR),"LPR10 vs LPR50, variation is consistent with transport",does not change
